Reference: patent US20160101146A1, “TREATMENT FOR INFECTION WITH HEPATITIS B VIRUS ALONE OR IN COMBINATION WITH HEPATITIS DELTA VIRUS AND ASSOCIATED LIVER DISEASES” (NOVARTIS AG, priority 2011, published 2016)

Legend:
[1] = tested on: Hepatitis B virus replication; test: Secreted HBV DNA quantitation in cell culture supernatants by real-time PCR; assay type: cell-based, Hepatitis B virus (human hepatoma cell lines)
Method: (§1) HepG2215 cell line, derived from HepG2 cells, was stably transfected with HBV DNA and supported full HBV replication with production of infectious virions and HBsAg. HepG2215 cells were cultured in 12-well plates, as described previously (7, 8), for 7 days prior to adding the cyclophilin inhibitors.
(§2) The cells were treated with 0.25, 1.0 or 5.0 micrograms/mL of NIM811 or DEB025; cells and supernatants were harvested separately at baseline, 6, 24, 48 and 72 hours after the addition of NIM811 or DEB025, respectively.
(§3) HuH-7 cells were transfected with a plasmid containing a pBlueScript KS(+) vector with a 1.5 HBV DNA genomes of subtype adw2 was used. Subconfluent HuH-7 cells were transfected with 5 μg of plasmid DNA per 60-mm-diameter dish using 10 μl of Superfect reagent (Qiagen, Crawley, UK). The supernatants were replaced 18 h posttransfection with medium supplemented with 10% FCS, and the cells were cultured for 3 days, as described (7).
(§4) Stably transfected (HepG2215) and transiently transfected (HUH-7) cells, producing full HBV virions and HBsAg particles, were treated with a range of Alisporivir concentrations (0.25, 1.0 5.0 or 20 micrograms/ml) alone, telbivudine alone, or combinations of Alisporivir and telbivudine. To determine the involvement of individual cyclophilins, HepG2215 cells were transfected with siRNA-specific for cyclophilin (Cyp) A, C or D and additionally treated with Alisporivir. Cytoplasmic extracts and supernatants were harvested at baseline; 24, 48 and 72 hours post-treatment. The kinetics of antiviral activity was assessed by quantitation of intracellular and secreted HBV-DNA (real-time qPCR) and HBsAg levels (ELISA).
(§5) HBV replication was assessed by quantitation of both viral nucleocapsid-associated HBV DNA (cytoplasmic) and the HBV DNA levels in cell culture supernatants, as described previously (8,9). Nucleocapsid HBV DNA was extracted and quantitated by TaqMan real-time PCR (ABI Prism 7700). Intracellular HBV DNA was normalized with b-actin as a house-keeping gene. Secreted HBV DNA was extracted with QIAmp DNA minikit (Qiagen, Sussex, UK) and also quantitated by TaqMan. The sensitivity of HBV DNA quantitation was verified in each run with serial dilutions of HBV DNA plasmid, as well as the EuroHep HBV DNA standard, as described (9,10).

[2] = tested on: Hepatitis B virus replication; test: Intracellular (cytoplasmic, nucleocapsid-associated) HBV DNA quantitation by real-time PCR in HBV-transfected hepatoma cells; assay type: cell-based, Hepatitis B virus (human hepatoma cell lines); conditions: for reduction of cellular HBV DNA: FIG. 6
Method: as §1, §2, §3, §4, §5

[3] = tested on: Hepatitis B virus replication; test: Alisporivir treatment of HepG2215 cells silenced for CypA, C or D by siRNA; HBV-DNA and HBsAg levels; assay type: cell-based, Hepatitis B virus (human hepatoma cell line); conditions: greater effects in CypC or CypD silenced cells than CypA silenced cells (p<0.001)
Method: To assess the role of cyclophilin A in HBV replication, HepG2215 cells were transfected with siRNA for cyclophilin A and incubated with medium only or with the addition of NIM811 or DEB025. Similarly, the role of Cyclophilin B, C and D in HBV and HDV replication will be evaluated by siRNA specific for CypB, C and D.
as §4, with “Cytoplasmic extracts and supernatants were harvested at baseline; 24, 48 and 72 hours post-treatment.” left out
HepG2215 cells were seeded with the siRNAs (Dharmacon Inc., Lafayette, Colo.) at 50% density and incubated for 48 h. […] Total DNA was extracted from the samples and HBV DNA was quantitated by real time PCR, as above. […] The RNA was reverse transcribed with Quantitect Reverse transcription kit (Qiagen) and cDNA quantitated with SYBR Green Quantitect kit using Quantitect primers (Qiagen, Sussex, UK).

[4] = tested on: Hepatitis B virus; conditions: at one year, cited from earlier work; for rate of undetectable HBV DNA: HBeAg-negative patients with CHB; for virological treatment response rate (undetectable serum HBV DNA): HBeAg-positive patients

| SMILES | reduction of secreted HBV-DNA ([1]; HepG2215 and HUH-7 cells, dose-dependent (0.25-20 micrograms/ml), compared with untreated controls, p<0.001) | effect in reducing HBV DNA levels in cell culture supernatants compared with NIM811 ([1]; HepG2215 cells, 5.0 micrograms/mL, FIG. 2) | reduction of secreted HBV DNA ([1]; HepG2215 cells, FIG. 5) | reduction of secreted HBV DNA ([1]; transiently transfected Huh7 or stably transfected HepG2215 cells, FIG. 3) | reduction of intracellular HBV-DNA ([2]; HepG2215 and HUH-7 cells, dose-dependent (0.25-20 micrograms/ml), compared with untreated controls, p=0.004) | reduction of intracellular HBV DNA compared with NIM811 ([2]; HepG2215 cells, 5 micrograms/mL, 72 h) | reduction of intracellular HBV DNA levels ([2]; HepG2215 cells, 5 micrograms/mL, 72 hours, FIG. 1) | reduction of cellular HBV DNA ([2]; HepG2215 cells) | reduction of cytoplasmic HBV DNA ([2]; Huh7 and HepG2215 cells, FIG. 4) | HBV-DNA levels in Cyp-silenced cells [3] | HBsAg levels in Cyp-silenced cells [3] | rate of undetectable HBV DNA [4] | virological treatment response rate (undetectable serum HBV DNA) [4] |
| --- | --- | --- | --- | --- | --- | --- | --- | --- | --- | --- | --- | --- | --- |
| C/C=C/C[C@@H](C)[C@@H](O)[C@H]1C(=O)N[C@@H](CC)C(=O)N(C)[C@H](C)C(=O)N(CC)[C@@H](C(C)C)C(=O)N[C@@H](C(C)C)C(=O)N(C)[C@@H](CC(C)C)C(=O)N[C@@H](C)C(=O)N[C@H](C)C(=O)N(C)[C@@H](CC(C)C)C(=O)N(C)[C@@H](CC(C)C)C(=O)N(C)[C@@H](C(C)C)C(=O)N1C [Alisporivir] | 63% | greater effect | reductions | dose-dependent reduction | 70% | greater than the reduction observed with NIM811 | 10 fold | reductions | dose dependent reductions | further reduced | further reduced |  |  |
| C=C1[C@H](CO)[C@@H](O)C[C@@H]1n1cnc2c(=O)[nH]c(N)nc21 [entecavir] |  |  |  |  |  |  |  |  |  |  |  | 90% | 67% |
| Cc1cn([C@@H]2C[C@@H](O)[C@H](CO)O2)c(=O)[nH]c1=O [telbivudine, reference compound] |  |  | reductions |  |  |  |  | reductions |  |  |  | 88% | 60% |
| C[C@H](Cn1cnc2c(N)ncnc21)OCP(=O)(O)O [tenofovir] |  |  |  |  |  |  |  |  |  |  |  | 91% | 74% |
